Here are results for 13 molecules from paper PMC9228641 (Journal of medicinal chemistry, 2021).

The test system of assay [1] is HCV replicon D168A variant. In words: microbe, parasite or virus in culture. Particulars: Hepatitis C virus, Huh-7, 96 h, read-out: EC50 against D168A variant.
For a further assay, the system named is GT-3a NS3/4A protease. In words: Enzyme inhibition assay. Type of assay: biochemical, Hepatitis C virus. The conditions noted are these: relative to 12.
Assay [2] relates to HCV GT-3a replicon, S52/SG-Feo SHI. The conditions noted are these: relative to 12.
Assay [3] deals with HCV replicon D168A variant.
The test system of a further assay is HCV replicons. Briefly: Replicon assays, variant not given. The assay is classed as cell-based, Hepatitis C virus. Particulars: more potent than 38. In general terms: Replicon systems follow genome replication, usually without infectious particles.
For assay [4], the system named is WT HCV Con1 (GT-1b) reporter replicon containing the H77 (GT-1a) NS3 protease region. Briefly: Antiviral replicon assay, WT HCV. Type of assay: cell-based, Hepatitis C virus. Particulars: for fold improvement in antiviral activity against WT HCV: more active, relative to 36.
[5] abbreviates: less active, compared to the (S)-stereoisomer 30.

The structures appear in SMILES notation. Where two headings read alike, the source gives them in different places. Where only a bound is given, the exact number is not on record here.

`COc1ccc2nc(C)c(O[C@@H]3C[C@H]4C(=O)N[C@]5(C(=O)NS(=O)(=O)C6(C)CC6)C[C@H]5/C=C/CCCCC[C@H](NC(=O)OC5C[C@@H]6C[C@@H]6C5)C(=O)N4C3)nc2c1` (some centres unmarked) [Compound 20]: in assay [1], the half-maximal effective concentration (EC50) – broadly, the midpoint of the concentration-response curve – was determined as 0.5 nM. Take `COc1ccc2nc(C)c(O[C@@H]3C[C@H]4C(=O)N[C@]5(C(=O)NS(=O)(=O)C6(C)CC6)C[C@H]5C=CCCCCC[C@H](NC(=O)OCC5(C(F)(F)F)CC5)C(=O)N4C3)nc2c1` (stereo in doubt) [Compound 15, (1-(Trifluoromethyl)cyclopropyl)methyl ((2R,6S,13aS,14aR,16aS,Z)-2-((7-methoxy-3-methylquinoxalin-2-yl)oxy)-14a-(((1-methylcyclopropyl)sulfonyl)carbamoyl)-5,16-dioxo-1,2,3,5,6,7,8,9,10,11,13a,14,14a,15,16,16a-hexadecahydrocyclopropa[e]pyrrolo[1,2-a][1,4]diazacyclopentadecin-6-yl)carbamate]: the “fold lower activity against GT-3a, enzyme assay” value in the assay with GT-3a NS3/4A protease came to 2 fold. Further, the “fold lower activity against GT-3a, replicon assay” value in assay [2] came out at 2 fold. For the molecule `COc1ccc2nc(C)c(O[C@@H]3C[C@H]4C(=O)N[C@]5(C(=O)NS(=O)(=O)C6(C)CC6)C[C@H]5C=CCCCCC[C@H](NC(=O)OC5(C(F)(F)F)CCCC5)C(=O)N4C3)nc2c1` (stereo in doubt) [Compound 24, 1-(Trifluoromethyl)cyclopentyl ((2R,6S,13aS,14aR,16aS,Z)-2-((7-methoxy-3-methylquinoxalin-2-yl)oxy)-14a-(((1-methylcyclopropyl)sulfonyl)carbamoyl)-5,16-dioxo-1,2,3,5,6,7,8,9,10,11,13a,14,14a,15,16,16a-hexadecahydrocyclopropa[e]pyrrolo[1,2-a][1,4]diazacyclopentadecin-6-yl)carbamate], in assay [3] (improvement, relative to the parent 18), the “fold improvement in potency against the D168A variant, replicon assay” value is 2 fold. Turning to `COc1ccc2nc(O[C@@H]3C[C@H]4C(=O)N[C@]5(C(=O)NS(=O)(=O)C6(C)CC6)C[C@H]5C=CCCCCC[C@H](NC(=O)O[C@H](C)C(F)(F)F)C(=O)N4C3)c(C(F)(F)F)nc2c1` (stereo in doubt) [Compound 39, (R)-1,1,1-Trifluoropropan-2-yl ((2R,6S,13aS,14aR,16aS,Z)-2-((6-methoxy-3-(trifluoromethyl)quinoxalin-2-yl)oxy)-14a-(((1-methylcyclopropyl)sulfonyl)carbamoyl)-5,16-dioxo-1,2,3,5,6,7,8,9,10,11,13a,14,14a,15,16,16a-hexadecahydrocyclopropa[e]pyrrolo[1,2-a][1,4]diazacyclopentadecin-6-yl)carbamate], the “fold more potent in replicon assays” value in the assay with HCV replicons is recorded as “at least 2 fold”. Turning to `COc1ccc2nc(O[C@@H]3C[C@H]4C(=O)N[C@]5(C(=O)NS(=O)(=O)C6(C)CC6)C[C@H]5C=CCCCCC[C@H](NC(=O)O[C@H](C)C(C)C)C(=O)N4C3)c(C(F)(F)F)nc2c1` (stereo in doubt) [Compound 31, (R)-3-Methylbutan-2-yl ((2R,6S,13aS,14aR,16aS,Z)-2-((6-methoxy-3-(trifluoromethyl)quinoxalin-2-yl)oxy)-14a-(((1-methylcyclopropyl)sulfonyl)carbamoyl)-5,16-dioxo-1,2,3,5,6,7,8,9,10,11,13a,14,14a,15,16,16a-hexadecahydrocyclopropa[e]pyrrolo[1,2-a][1,4]diazacyclopentadecin-6-yl)carbamate], the “fold less active against D168A replicon” value in assay [3] (setting [5]) is 2 fold. The “fold less active against WT replicon” value in assay [4] (setting [5]) came to 2 fold. `COc1ccc2nc(O[C@@H]3C[C@H]4C(=O)N[C@]5(C(=O)NS(=O)(=O)C6(C)CC6)C[C@H]5C=CCCCCC[C@H](NC(=O)OCC5(C)CC5(F)F)C(=O)N4C3)c(C(F)(F)F)nc2c1` (stereo in doubt) [Compound 41, (2,2-Difluoro-1-methylcyclopropyl)methyl ((2R,6S,13aS,14aR,16aS,Z)-2-((6-methoxy-3-(trifluoromethyl)quinoxalin-2-yl)oxy)-14a-(((1-methylcyclopropyl)sulfonyl)carbamoyl)-5,16-dioxo-1,2,3,5,6,7,8,9,10,11,13a,14,14a,15,16,16a-hexadecahydrocyclopropa[e]pyrrolo[1,2-a][1,4]diazacyclopentadecin-6-yl)carbamate]: the “fold improvement in antiviral activity against WT HCV” value in assay [4] is 2 fold. On to `COc1ccc2nc(C)c(O[C@@H]3C[C@H]4C(=O)N[C@]5(C(=O)NS(=O)(=O)C6(C)CC6)C[C@H]5C=CCCCCC[C@H](NC(=O)O[C@H](C)C(F)(F)F)C(=O)N4C3)nc2c1` (stereo in doubt) [Compound 14, (R)-1,1,1-Trifluoropropan-2-yl ((2R,6S,13aS,14aR,16aS,Z)-2-((7-methoxy-3-methylquinoxalin-2-yl)oxy)-14a-(((1-methylcyclopropyl)sulfonyl)carbamoyl)-5,16-dioxo-1,2,3,5,6,7,8,9,10,11,13a,14,14a,15,16,16a-hexadecahydrocyclopropa[e]pyrrolo[1,2-a][1,4]diazacyclopentadecin-6-yl)carbamate], for which, in assay [3] (relative to 13), the “fold better potency against the D168A variant” value is 2 fold. `CCC(C)(C)OC(=O)N[C@H]1CCCCCC=C[C@@H]2C[C@@]2(C(=O)NS(=O)(=O)C2(C)CC2)NC(=O)[C@@H]2C[C@@H](Oc3nc4ccc(OC)cc4nc3C(F)(F)F)CN2C1=O` (stereo in doubt) [Compound 28, tert-Pentyl ((2R,6S,13aS,14aR,16aS,Z)-2-((6-methoxy-3-(trifluoromethyl)quinoxalin-2-yl)oxy)-14a-(((1-methylcyclopropyl)sulfonyl)carbamoyl)-5,16-dioxo-1,2,3,5,6,7,8,9,10,11,13a,14,14a,15,16,16a-hexadecahydrocyclopropa[e]pyrrolo[1,2-a][1,4]diazacyclopentadecin-6-yl)carbamate]: the “fold lower antiviral activity against the D168A variant” value in assay [3] (lower, relative to 3) is recorded as 2 fold. `COc1ccc2nc(O[C@@H]3C[C@H]4C(=O)N[C@]5(C(=O)NS(=O)(=O)C6(C)CC6)C[C@H]5C=CCCCCC[C@H](NC(=O)OC5(C(F)(F)F)CCCC5)C(=O)N4C3)c(C(F)(F)F)nc2c1` (stereo in doubt) [Compound 48, 1-(Trifluoromethyl)cyclopentyl ((2R,6S,13aS,14aR,16aS,Z)-2-((6-methoxy-3-(trifluoromethyl)quinoxalin-2-yl)oxy)-14a-(((1-methylcyclopropyl)sulfonyl)carbamoyl)-5,16-dioxo-1,2,3,5,6,7,8,9,10,11,13a,14,14a,15,16,16a-hexadecahydrocyclopropa[e]pyrrolo[1,2-a][1,4]diazacyclopentadecin-6-yl)carbamate]: the “fold better potency against the D168A variant” value in assay [3] (compared to 42) was determined as 3 fold.

With `COc1ccc2nc(C)c(O[C@@H]3C[C@H]4C(=O)N[C@]5(C(=O)NS(=O)(=O)C6(C)CC6)C[C@H]5/C=C/CCCCC[C@H](NC(=O)OC5CCC5)C(=O)N4C3)nc2c1` [Compound 21], the concentration for a half-maximal effect (EC50) in assay [1] is less than 5 nM. For `COc1ccc2nc(C)c(O[C@@H]3C[C@H]4C(=O)N[C@]5(C(=O)NS(=O)(=O)C6(C)CC6)C[C@H]5C=CCCCCC[C@H](NC(=O)O[C@@H](C)C(F)(F)F)C(=O)N4C3)nc2c1` (stereo in doubt) [Compound 13, (S)-1,1,1-Trifluoropropan-2-yl ((2R,6S,13aS,14aR,16aS,Z)-2-((7-methoxy-3-methylquinoxalin-2-yl)oxy)-14a-(((1-methylcyclopropyl)sulfonyl)carbamoyl)-5,16-dioxo1,2,3,5,6,7,8,9,10,11,13a,14,14a,15,16,16a-hexadecahydrocyclopropa[e]pyrrolo[1,2-a][1,4]diazacyclopentadecin-6-yl)carbamate], the EC50 in assay [1] was less than 10 nM. Turning to `COc1ccc2nc(C)c(O[C@@H]3C[C@H]4C(=O)N[C@]5(C(=O)NS(=O)(=O)C6(C)CC6)C[C@H]5C=CCCCCC[C@H](NC(=O)OC(C)(C)C(F)(F)F)C(=O)N4C3)nc2c1` (stereo in doubt) [Compound 12, 1,1,1-Trifluoro-2-methylpropan-2-yl ((2R,6S,13aS,14aR,16aS,Z)-2-((7-methoxy-3-methylquinoxalin-2-yl)oxy)-14a-(((1-methylcyclopropyl)sulfonyl)carbamoyl)-5,16-dioxo-1,2,3,5,6,7,8,9,10,11,13a,14,14a,15,16,16a-hexadecahydrocyclopropa[e]pyrrolo[1,2-a][1,4]diazacyclopentadecin-6-yl)carbamate], the concentration for a half-maximal effect (EC50) in assay [4] (Hepatitis C virus, GT1A|GT1B, Huh-7, 96 h, read-out: EC50 against WT HCV) is less than 5 nM; in assay [1], less than 5 nM.

Take `COc1ccc2nc(O[C@@H]3C[C@H]4C(=O)N[C@]5(C(=O)NS(=O)(=O)C6(C)CC6)C[C@H]5C=CCCCCC[C@H](NC(=O)OCC5(C(F)(F)F)CC5)C(=O)N4C3)c(C(F)(F)F)nc2c1` (stereo in doubt) [Compound 40, (1-(Trifluoromethyl)cyclopropyl)methyl ((2R,6S,13aS,14aR,16aS,Z)-2-((6-methoxy-3-(trifluoromethyl)quinoxalin-2-yl)oxy)-14a-(((1-methylcyclopropyl)sulfonyl)carbamoyl)-5,16-dioxo-1,2,3,5,6,7,8,9,10,11,13a,14,14a,15,16,16a-hexadecahydrocyclopropa[e]pyrrolo[1,2-a][1,4]diazacyclopentadecin-6-yl)carbamate]: the “fold more active against the D168A variant” value in assay [3] (more active, relative to 36) is 2 fold. Also, the “fold improvement in antiviral activity against WT HCV” value in assay [4] was found to be 2 fold.
